Key:
[1] = target: T1, TRPC1:C5 channels (Homo sapiens, UniProt P48995+Q9UL62); experiment: Excised outside-out patch-clamp, HEK 293 cells transiently co-expressing hTRPC1 and hTRPC5; format: cell-based
T1 construct: expressed in transfected cells; host or cells: HEK 293 (transient, Lipofectamine 3000)
Procedure: HEK T‐REx™ cell line was transfected with TRPC5‐SYFP2 or TRPC4‐SYFP2 using FuGENE® HD transfection reagent. After 48 hr, cells were put under antibiotic selection using 400 μg·ml^−1 zeocin and 10 μg·ml^−1 blasticidin S (Invivogen, San Diego, California, USA). Medium changes were carried out regularly to remove dead cells. HEK T‐REx cells expressing tetracycline‐inducible human TRPC5, TRPC4–C1, and TRPC5–C1 were created as described previously (Akbulut et al., 2015; Ludlow et al., 2017; Rubaiy, Ludlow, Henrot, et al., 2017). […]
For electrophysiology experiments, cells were plated at a low density of 20–30% onto round or square glass coverslips (13 mm diameter or 5 × 5 mm), and TRPC expression in HEK T‐REx was induced with 1 μg·ml^−1 tetracycline 24 hr before experimentation. […] The patch‐clamp currents were recorded using Axopatch 200B or HEKA EPC‐800 amplifiers, digitized by a Digidata 1440 or PCI6229 (National Instruments Japan, Tokyo, Japan) and recorded to a computer using pCLAMP10 (Molecular Devices) or WinWCPV4.5 (developed by Dr John Dempster, University of Strathclyde, UK). […]

[2] = target: T2, TRPC6 (Homo sapiens, UniProt Q9Y210); experiment: [Ca2+]i selectivity assay, WT HEK 293 cells transiently transfected with hTRPC6, OAG activation; format: cell-based; conditions: 300 nM AM237; 100 μM OAG
T2 construct: expressed in transfected cells; host or cells: WT HEK 293 (transient, jetPRIME; pcDNA3)
T2 sequence (Q9Y210 1-931): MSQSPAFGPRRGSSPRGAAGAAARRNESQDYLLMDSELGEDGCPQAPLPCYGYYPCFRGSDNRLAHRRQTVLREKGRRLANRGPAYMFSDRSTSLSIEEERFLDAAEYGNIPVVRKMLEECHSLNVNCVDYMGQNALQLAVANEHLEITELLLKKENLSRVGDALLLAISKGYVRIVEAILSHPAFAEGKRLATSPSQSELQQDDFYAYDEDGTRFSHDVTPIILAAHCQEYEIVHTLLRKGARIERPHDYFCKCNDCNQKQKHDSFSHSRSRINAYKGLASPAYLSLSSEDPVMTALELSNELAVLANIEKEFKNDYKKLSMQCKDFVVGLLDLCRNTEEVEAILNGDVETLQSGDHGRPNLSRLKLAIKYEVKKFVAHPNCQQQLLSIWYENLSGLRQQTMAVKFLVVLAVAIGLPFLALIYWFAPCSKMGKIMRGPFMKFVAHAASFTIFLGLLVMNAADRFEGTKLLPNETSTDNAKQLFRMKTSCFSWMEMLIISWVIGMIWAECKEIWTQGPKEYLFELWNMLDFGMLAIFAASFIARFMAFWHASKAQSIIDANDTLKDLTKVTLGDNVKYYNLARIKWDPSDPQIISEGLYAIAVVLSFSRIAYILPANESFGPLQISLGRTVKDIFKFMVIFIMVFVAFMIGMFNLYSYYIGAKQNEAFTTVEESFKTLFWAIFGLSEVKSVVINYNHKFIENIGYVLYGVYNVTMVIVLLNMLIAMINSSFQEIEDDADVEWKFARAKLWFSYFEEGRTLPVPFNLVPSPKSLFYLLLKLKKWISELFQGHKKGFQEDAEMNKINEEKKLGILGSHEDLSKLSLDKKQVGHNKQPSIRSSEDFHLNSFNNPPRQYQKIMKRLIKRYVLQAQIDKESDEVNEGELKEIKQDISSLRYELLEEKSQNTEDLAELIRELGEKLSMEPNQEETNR

T1 sequence (Q9UL62 whole entry): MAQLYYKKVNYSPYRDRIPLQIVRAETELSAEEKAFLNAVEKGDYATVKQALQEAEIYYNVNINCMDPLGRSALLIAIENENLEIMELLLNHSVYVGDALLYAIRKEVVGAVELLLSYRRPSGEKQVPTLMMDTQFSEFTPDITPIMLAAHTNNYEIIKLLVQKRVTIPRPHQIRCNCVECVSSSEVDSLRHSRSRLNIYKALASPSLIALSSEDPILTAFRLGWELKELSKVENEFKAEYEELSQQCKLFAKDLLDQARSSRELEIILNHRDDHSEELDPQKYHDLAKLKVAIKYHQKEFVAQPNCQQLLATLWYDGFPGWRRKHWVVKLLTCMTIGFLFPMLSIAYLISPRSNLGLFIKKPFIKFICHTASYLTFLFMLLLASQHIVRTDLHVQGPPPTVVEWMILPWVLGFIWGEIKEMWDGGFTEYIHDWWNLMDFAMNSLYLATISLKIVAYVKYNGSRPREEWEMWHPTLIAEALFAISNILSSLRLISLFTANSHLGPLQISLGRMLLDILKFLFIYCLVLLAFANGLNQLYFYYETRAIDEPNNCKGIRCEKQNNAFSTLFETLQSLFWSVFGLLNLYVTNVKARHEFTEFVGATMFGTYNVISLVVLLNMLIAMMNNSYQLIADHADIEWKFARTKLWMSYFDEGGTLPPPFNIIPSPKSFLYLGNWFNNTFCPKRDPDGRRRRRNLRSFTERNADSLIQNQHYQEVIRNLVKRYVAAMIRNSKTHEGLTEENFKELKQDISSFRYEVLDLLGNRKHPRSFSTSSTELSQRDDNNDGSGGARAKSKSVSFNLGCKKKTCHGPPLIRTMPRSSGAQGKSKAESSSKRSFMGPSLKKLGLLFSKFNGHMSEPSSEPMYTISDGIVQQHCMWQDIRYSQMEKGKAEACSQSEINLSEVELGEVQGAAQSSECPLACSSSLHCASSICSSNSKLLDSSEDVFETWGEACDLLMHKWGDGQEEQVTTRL
T1 sequence (P48995 whole entry): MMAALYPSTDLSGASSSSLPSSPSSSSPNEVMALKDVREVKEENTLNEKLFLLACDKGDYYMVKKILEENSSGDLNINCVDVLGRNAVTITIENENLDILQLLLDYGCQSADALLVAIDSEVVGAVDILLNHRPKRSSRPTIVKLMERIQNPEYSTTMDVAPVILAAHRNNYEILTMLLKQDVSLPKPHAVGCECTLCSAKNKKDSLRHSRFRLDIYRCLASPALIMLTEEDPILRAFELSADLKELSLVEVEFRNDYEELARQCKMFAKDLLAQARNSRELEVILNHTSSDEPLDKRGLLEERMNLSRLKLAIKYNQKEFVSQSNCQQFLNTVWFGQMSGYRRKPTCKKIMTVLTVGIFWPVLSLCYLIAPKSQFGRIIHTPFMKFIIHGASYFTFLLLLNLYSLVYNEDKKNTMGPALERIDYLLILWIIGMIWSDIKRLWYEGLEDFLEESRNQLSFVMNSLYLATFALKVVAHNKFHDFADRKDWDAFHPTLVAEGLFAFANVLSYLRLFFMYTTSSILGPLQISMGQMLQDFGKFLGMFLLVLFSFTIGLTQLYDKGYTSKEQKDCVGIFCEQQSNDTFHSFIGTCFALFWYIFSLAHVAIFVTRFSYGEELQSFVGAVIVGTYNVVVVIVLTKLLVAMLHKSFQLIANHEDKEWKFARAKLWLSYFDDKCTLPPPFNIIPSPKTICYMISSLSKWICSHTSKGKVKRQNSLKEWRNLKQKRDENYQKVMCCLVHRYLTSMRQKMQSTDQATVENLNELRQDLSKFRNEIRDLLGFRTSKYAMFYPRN

Cn1c(=O)n(CCCO)c(=O)c2c1nc(Oc1ccc(Cl)c(OC(F)(F)F)c1)n2Cc1ccc(Cl)cc1 [AM237]
Inhibition of inward and outward currents induced by EA ([1]; 30 nM EA, at 3 to 100 nM AM237): full inhibition
Activation of TRPC1:C5 currents ([1]; outside-out patch): did not activate
Activation or inhibition of TRPC6 [2]: no activation or inhibition

Source: publication PMC6811774, “Potent, selective, and subunit‐dependent activation of TRPC5 channels by a xanthine derivative” (British Journal of Pharmacology, 2019)
